Assay results reported in ChEMBL document CHEMBL1144147, “New annonaceous acetogenins from Rollinia mucosa” (J Nat Prod, 1999).
≈ marks a conversion by molar mass, not a printed value.

Assay: Cytotoxicity against human HepG2(2.2.15) cells after 3 day
Type: functional, cell-based
Details: HepG2 2.2.15, 72 h

SMILES: COc1cccc2c1C(=O)c1c(O)c3c(c(O)c1C2=O)C[C@@](O)(C(=O)CO)C[C@@H]3O[C@H]1C[C@H](N)[C@H](O)[C@H](C)O1 [DOXORUBICIN]
- IC50: 0.45 mg/L (≈ 0.828 µM)
